The source made the active and inactive calls. The calls are words filed in the database; no cut-off is given here.
Columns and labels:
Cholinesterase = Cholinesterase (Homo sapiens, UniProt P06276); experiment: Inhibition of human plasmatic BChE by modified Ellman's method; parameters: species or system Plasma
Acetylcholinesterase [1] = target: T1, Acetylcholinesterase (Homo sapiens, UniProt P22303); experiment: Inhibition of human erythrocyte recombinant AChE by modified Ellman's method
Acetylcholinesterase [2] = target: T1, Acetylcholinesterase; experiment: Inhibition of human erythrocytes recombinant AChE assessed as dissociation constant for enzyme-inhibitor complex
Acetylcholinesterase [3] = target: T1, Acetylcholinesterase; experiment: Inhibition of human erythrocytes recombinant AChE assessed as dissociation constant for enzyme-inhibitor-substrate complex
Acetylcholinesterase [4] = target: T1, Acetylcholinesterase; experiment: Inhibition of human erythrocyte recombinant AChE at 0.1 mM to […] by modified Ellman's method

Chain of Cholinesterase (P06276 whole entry): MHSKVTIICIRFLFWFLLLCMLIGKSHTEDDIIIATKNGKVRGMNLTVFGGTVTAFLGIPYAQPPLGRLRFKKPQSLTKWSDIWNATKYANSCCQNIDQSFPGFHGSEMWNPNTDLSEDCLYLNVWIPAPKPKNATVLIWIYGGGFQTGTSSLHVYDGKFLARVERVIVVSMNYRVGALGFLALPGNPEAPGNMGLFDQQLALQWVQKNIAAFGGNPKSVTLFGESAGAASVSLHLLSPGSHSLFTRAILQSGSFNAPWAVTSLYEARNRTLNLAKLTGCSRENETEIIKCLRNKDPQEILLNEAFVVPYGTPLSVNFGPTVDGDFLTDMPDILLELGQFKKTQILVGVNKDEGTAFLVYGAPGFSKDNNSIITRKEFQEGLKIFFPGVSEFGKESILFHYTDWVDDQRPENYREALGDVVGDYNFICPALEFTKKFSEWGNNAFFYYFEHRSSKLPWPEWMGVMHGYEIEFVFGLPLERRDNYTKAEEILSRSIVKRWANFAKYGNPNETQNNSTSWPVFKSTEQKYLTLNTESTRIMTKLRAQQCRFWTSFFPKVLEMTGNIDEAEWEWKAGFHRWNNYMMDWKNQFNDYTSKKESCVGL
T1 sequence (P22303 whole entry): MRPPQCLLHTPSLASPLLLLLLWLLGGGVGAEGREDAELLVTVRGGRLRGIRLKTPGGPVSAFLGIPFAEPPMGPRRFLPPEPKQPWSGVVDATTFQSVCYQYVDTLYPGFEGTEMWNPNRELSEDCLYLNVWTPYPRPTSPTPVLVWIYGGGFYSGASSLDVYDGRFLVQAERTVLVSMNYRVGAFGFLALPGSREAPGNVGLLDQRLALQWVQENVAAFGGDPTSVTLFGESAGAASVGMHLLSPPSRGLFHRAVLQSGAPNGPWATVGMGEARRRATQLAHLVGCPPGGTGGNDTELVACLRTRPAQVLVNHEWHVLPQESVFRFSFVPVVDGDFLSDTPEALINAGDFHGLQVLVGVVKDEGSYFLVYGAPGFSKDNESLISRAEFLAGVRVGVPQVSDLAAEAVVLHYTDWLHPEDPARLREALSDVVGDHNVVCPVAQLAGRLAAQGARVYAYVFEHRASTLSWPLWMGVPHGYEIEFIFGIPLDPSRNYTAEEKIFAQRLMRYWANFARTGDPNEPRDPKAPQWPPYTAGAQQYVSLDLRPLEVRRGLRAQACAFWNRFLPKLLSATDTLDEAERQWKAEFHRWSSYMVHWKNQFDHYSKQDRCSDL

SMILES: c1ccc2c(c1)ccc[n+]2CCCC[n+]1cccc2ccccc21
- IC50 (Cholinesterase): 32 µM
- IC50 (Acetylcholinesterase [1]): 38 µM

SMILES: c1ccc2c(c1)ccc[n+]2CCCCCCCC[n+]1cccc2ccccc21
- IC50 (Cholinesterase): 0.7 µM
- IC50 (Acetylcholinesterase [1]): 0.08 µM

SMILES: c1ccc2c(c1)ccc[n+]2Cc1ccc2ccc(C[n+]3cccc4ccccc43)cc2c1
- Ki (Acetylcholinesterase [2]): 2300 nM
- IC50 (Cholinesterase): 0.2 µM
- IC50 (Acetylcholinesterase [1]): 0.8 µM
- Ki (Acetylcholinesterase [3]): 8.2 µM

SMILES: c1ccc2c(c1)ccc[n+]2CCCCC[n+]1cccc2ccccc21
- IC50 (Cholinesterase): 34 µM
- IC50 (Acetylcholinesterase [1]): 4 µM

SMILES: C(=C\C[n+]1cccc2ccccc21)/C[n+]1cccc2ccccc21
- IC50 (Cholinesterase): 308 µM
- IC50 (Acetylcholinesterase [1]): 6 µM

SMILES: c1ccc2c(c1)ccc[n+]2CCOCC[n+]1cccc2ccccc21
- IC50 (Cholinesterase): 48 µM
- IC50 (Acetylcholinesterase [1]): 35 µM

SMILES: c1ccc2c(c1)ccc[n+]2CCCCCCCCCCC[n+]1cccc2ccccc21
- IC50 (Cholinesterase): 0.5 µM
- IC50 (Acetylcholinesterase [1]): 0.01 µM

SMILES: c1ccc2c(c1)ccc[n+]2CCCCCCCCC[n+]1cccc2ccccc21
- IC50 (Cholinesterase): 0.6 µM
- IC50 (Acetylcholinesterase [1]): 0.08 µM

SMILES: c1cc(C[n+]2cccc3ccccc32)cc(C[n+]2cccc3ccccc32)c1
- IC50 (Cholinesterase): 20 µM
- IC50 (Acetylcholinesterase [1]): 40 µM

SMILES: C[N+](C)(CCNC(=O)C(=O)NCC[N+](C)(C)Cc1ccccc1Cl)Cc1ccccc1Cl [AMBENONIUM DICHLORIDE]
- IC50 (Cholinesterase): 7 µM

SMILES: c1ccc2c(c1)ccc[n+]2CCCCCCC[n+]1cccc2ccccc21
- IC50 (Cholinesterase): 0.4 µM
- IC50 (Acetylcholinesterase [1]): 0.09 µM

SMILES: c1ccc2c(c1)ccc[n+]2Cc1ccc(C[n+]2cccc3ccccc32)cc1
- inhibition (Acetylcholinesterase [4]): inactive

SMILES: c1ccc2c(c1)ccc[n+]2CCCCCCCCCCCC[n+]1cccc2ccccc21
- IC50 (Cholinesterase): 0.4 µM
- IC50 (Acetylcholinesterase [1]): 0.02 µM

SMILES: c1ccc2c(c1)ccc[n+]2COC[n+]1cccc2ccccc21
- IC50 (Cholinesterase): 871 µM
- IC50 (Acetylcholinesterase [1]): 418 µM

SMILES: c1ccc(C[n+]2cccc3ccccc32)c(C[n+]2cccc3ccccc32)c1
- IC50 (Cholinesterase): 6 µM
- IC50 (Acetylcholinesterase [1]): 35 µM

SMILES: c1ccc2c(c1)ccc[n+]2CCCCCC[n+]1cccc2ccccc21
- IC50 (Cholinesterase): 5 µM
- IC50 (Acetylcholinesterase [1]): 25 µM

SMILES: C(=C/C[n+]1cccc2ccccc21)/C[n+]1cccc2ccccc21
- IC50 (Cholinesterase): 0.8 µM
- IC50 (Acetylcholinesterase [1]): 2 µM

SMILES: c1ccc2c(c1)ccc[n+]2CCC[n+]1cccc2ccccc21
- IC50 (Cholinesterase): 13 µM
- IC50 (Acetylcholinesterase [1]): 9 µM

— ChEMBL document CHEMBL1759923, “Preparation, in vitro screening and molecular modelling of symmetrical bis-quinolinium cholinesterase inhibitors--implications for early myasthenia gravis treatment” (Bioorg Med Chem Lett, 2011)
